Data as given in patent publication US11879137B2, “Treatment of type 1 diabetes and autoimmune diseases or disorders” (THE CHILDREN'S MEDICAL CENTER CORPORATION, priority 2017, dated 2024).

Test system: PD-L1 on CD34+ cells
Experiment: Prostaglandin library screening and FACS of PD-L1 on human CD34+ cells
Format: cell-based
Conditions: for PD-L1 expression by FACS analysis: CD34+ cells, 10 μM pulsed at 24 and 48 hours
From the text: FIGS. 17A-17J show prostaglandins enhance PD-L1 expression on human CD34^+ cells. (FIG. 17A-17B) Results of screening of a prostaglandin small molecule library tested for the ability to upregulate PD-L1 (MFI) on CD34^+ cells obtained from T1D patients. The schematic of the experimental design is shown in (A). The 3-color coding shown in (FIG. 17B) represents lowest PD-L1 MFI values (blue), median PD-L1 MFI values (pink) and highest PD-L1 MFI values (red). (FIG. 17C-17D) Representative flow cytometric analysis and quantitative bar graph of PD-L1 expression on CD34^+ cells from T1D patients pre- and post-pharmacologic modulation with PGE2 as compared to CD34^+ cells obtained from healthy controls. (FIG. 17E) PD-L1 and CXCR4 expression (mRNA) fold change was quantified for CD34^+ cells pre- and post-modulation with PGE2. (FIG. 17F) Migration assay using CD34^+ cells pre- and post-modulation with PGE2. (FIG. 17G) Confocal imaging of CD34^+ cells pre- and post-modulation with PGE2, showing DAPI (in blue) and PD-L1 (in green) staining. 63× magnification. Scale bar, 50 (FIG. 17H) IDO-1 expression (mRNA) fold change was quantified for CD34^+ cells pre- and post-modulation with PGE2. (FIG. 17I-17J) Representative flow cytometric analysis (FIG. 17I) and quantitative bar graph (FIG. 17J) of PD-L1 expression on CD34^+ cells from T1D patients pre- and post-pharmacologic modulation with 4 small molecule PGE2 agonists. All data are expressed as mean±SEM. *P<0.05, **P<0.001. Abbreviations: MFI, mean fluorescence intensity.
Pharmacological modulation of human CD34+ cells. 1×105 of isolated human CD34+ HSPCs (purity 99%) were cultured in 200 μl of StemSpan SFEM II media (SEMCELL Technologies Inc., Cambridge, MA, USA), and each compound in the Prostaglandin Screening Library II (Cayman Chemicals, Ann Arbor, MI), was added individually at day 0 and at day 1 at a concentration of 10 μM as previously reported by the inventors and others (9, 21). In another assay, isolated CD34+ cells from freshly isolated human PBMCs or from cryopreserved PBMCs, and processed as described earlier, were cultured in the presence of a cocktail of cytokines containing: 10 μg/ml heparin (SEMCELL Technologies Inc., Cambridge, MA, USA), 10 ng/ml human SCF (Miltenyi Biotec, San Diego, CA), 20 ng/ml human TPO (Miltenyi Biotec, San Diego, CA), 10 ng/ml human FGF-1 (Miltenyi Biotec, San Diego, CA), 100 ng/ml IGFBP2 (R&D Systems, Inc., Minneapolis, MN), and 500 ng/ml Angptl3 (R&D Systems, Inc., Minneapolis, MN). PGE2 (PromoKine, PromoCell Gmbh, Germany) was added by pulsing the culture at 0, 24h, 72h and 6 days with 2 μl of diluted PGE2 (10 μM). Cells were cultured for 7 days at 37° C. in 5% CO2, and CD34+ cells were then subjected to FACS analysis and were run on a FACSCelesta™ (Becton Dickinson, Franklin Lakes, NJ). Data were analyzed using FlowJo software version 8.7.3 (Treestar, Ashland, OR). The different cytokines used here and their related concentration as well as the choice of the incubation timing was used as previously reported in the literature (22).
Prostaglandin library screening. PGE2 has been described as a small molecule known to enhance the homing and engraftment of HSPCs. It was therefore sought to screen all known types of prostaglandins using the Prostaglandin Screening Library II, which contains 64 small molecules. Each small molecule contained in the library was first screened for its capacity to upregulate PD-L1 in human CD34+ cells isolated from T1D patients (FIG. 17A-17B). CD34+ cells isolated from T1D patients were cultured in StemSpan SFEMII and pulsed with each PG (prostaglandin) small molecule contained in the aforementioned library at a concentration of 10 μM at 24 and 48h. Using FACS analysis, the MFI (mean fluorescence intensity) of PD-L1 expression was calculated following treatment with each small molecule used to modulate CD34+ cells as compared to untreated/unmodulated CD34+ cells (FIG. 17B). […]

SMILES	capacity to upregulate PD-L1 (MFI) in library screening (10 μM, CD34+ cells from T1D patients)	PD-L1 expression by FACS analysis
CCCCC(C)(C)[C@H](O)/C=C/[C@H]1[C@H](O)CC(=O)[C@@H]1C/C=C\CCCC(=O)O [16,16-dimethyl PGE2]	strongest capacity	robust upregulation
CCCCC[C@H](O)/C=C/[C@H]1[C@H](O)CC(=O)[C@@H]1C/C=C\CCCC(=O)O [PGE2, prostaglandin E2]	–	slight increase
